# Values joined by “and” are separate entries in the source; they are usually repeats but may differ in a detail not shown here. Equal values may be shown once.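 How tested: cells in 96-well plates exposed to compound for 48 hours at five concentrations. GI50: concentration for 50% inhibition of growth.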 Active and inactive are the calls of the source. Rule as the data show it: active = GI50 up to about 1.1 µM and inactive = higher.
# Legend:
# Test in all cases: NCI anticancer screen, dose series, 48 h
# MDA-MB-435 = test system: MDA-MB-435
# HCC 2998 = test system: HCC 2998
# TK-10 = test system: TK-10
# OVCAR-4 = test system: OVCAR-4
# SK-MEL-5 = test system: SK-MEL-5
# Hs-578T = test system: Hs-578T
# NCI-H23 = test system: NCI-H23
# A549 = test system: A549
# SK-MEL-28 = test system: SK-MEL-28
# MDA-N = test system: MDA-N
# SF-268 = test system: SF-268
# EKVX = test system: EKVX
# SK-OV-3 = test system: SK-OV-3
# 786-0 = test system: 786-0
# NCI-H226 = test system: NCI-H226
# SK-MEL-2 = test system: SK-MEL-2
# MOLT-4 = test system: MOLT-4
# NCI-H460 = test system: NCI-H460
# SNB-75 = test system: SNB-75
Compound,GI50 (MDA-MB-435),GI50 (HCC 2998),GI50 (TK-10),GI50 (OVCAR-4),GI50 (SK-MEL-5),GI50 (Hs-578T),GI50 (NCI-H23),GI50 (A549),GI50 (SK-MEL-28),GI50 (MDA-N),GI50 (SF-268),GI50 (EKVX),GI50 (SK-OV-3),GI50 (786-0),GI50 (NCI-H226),GI50 (SK-MEL-2),GI50 (MOLT-4),GI50 (NCI-H460),GI50 (SNB-75)
Cc1cccc2c1CC1(C2)Cc2c(C)cccc2C1=O (stereo not given),24.8 µM (inactive),26.1 µM (inactive),23.6 µM (inactive),30.6 µM (inactive),18.2 µM (inactive),37.6 µM (inactive),31.4 µM (inactive),22.4 µM (inactive),21.6 µM (inactive),26.9 µM (inactive),26.7 µM (inactive),16 µM (inactive),29.8 µM (inactive),23.8 µM (inactive),26.8 µM (inactive),16.9 µM (inactive),9.91 µM (inactive),22.7 µM (inactive),18.6 µM (inactive)
COC(=O)c1cc2c(c3c1CC(Cc1ccccc1)C3=O)CCC2 (stereo not given),52.6 µM (inactive),36.7 µM (inactive),> 100 µM (inactive),81.1 µM (inactive),64.4 µM (inactive),45.9 µM (inactive),64.4 µM (inactive),53.6 µM (inactive),> 100 µM (inactive),> 100 µM (inactive),91.6 µM (inactive),> 100 µM (inactive),80.5 µM (inactive),71.8 µM (inactive),> 100 µM (inactive),,53.6 µM (inactive),71.1 µM (inactive),40.9 µM (inactive)
COc1cc(C(=O)Oc2c(C#N)sc3c2c(=O)n(-c2ccccc2)c(=S)n3-c2ccccc2)cc(OC)c1OC,15.1 µM (inactive),19.6 µM (inactive),27.7 µM (inactive),26.4 µM (inactive),17.3 µM (inactive),8.26 µM (inactive),18.1 µM (inactive),21.5 µM (inactive),14.2 µM (inactive),20.2 µM (inactive),14.3 µM (inactive),19.3 µM (inactive),22 µM (inactive),15.2 µM (inactive),4.73 µM (inactive),,16.6 µM (inactive),21.9 µM (inactive),14.4 µM (inactive)
CCc1ccc2oc(-c3cc(O)c(-c4nc5cc(CC)ccc5o4)cc3O)nc2c1,> 100 µM (inactive),> 100 µM (inactive),> 100 µM (inactive),,> 100 µM (inactive),> 100 µM (inactive),> 100 µM (inactive),> 100 µM (inactive),> 100 µM (inactive),> 100 µM (inactive),> 100 µM (inactive),> 100 µM (inactive),> 100 µM (inactive),> 100 µM (inactive),> 100 µM (inactive),> 100 µM (inactive),> 100 µM (inactive),> 100 µM (inactive),86.5 µM (inactive)
ClCCN1CCO/C1=N/c1ccc2c(c1)CCCC2,10.5 µM (inactive),14.1 µM (inactive),,6.1 µM (inactive),1.96 µM (inactive),13.9 µM (inactive),8.95 µM (inactive),13.8 µM (inactive),14.1 µM (inactive),10.8 µM (inactive),14.7 µM (inactive),14 µM (inactive),20.7 µM (inactive),16.2 µM (inactive),13.5 µM (inactive),13.7 µM (inactive),12.2 µM (inactive),18.8 µM (inactive),13.3 µM (inactive)
O=C(NC1CCCCCC1)C1C(=O)N(C2CCCCCC2)C(=O)/C1=N\O (stereo not given),,19.5 µM (inactive),6.12 µM (inactive),44.1 µM (inactive),36.1 µM (inactive),,26.5 µM (inactive),42.8 µM (inactive),30 µM (inactive),,29.1 µM (inactive),36.2 µM (inactive),38.4 µM (inactive),32.8 µM (inactive),35.6 µM (inactive),17.1 µM (inactive),21.5 µM (inactive),35.7 µM (inactive),26.6 µM (inactive)
COC(=O)c1c(C(=O)OC)c2ccccn2c1-c1cc(C)cc2c1C(=O)C=CC2=O,11.4 µM (inactive),13.9 µM (inactive),14.1 µM (inactive),14.2 µM (inactive),12.4 µM (inactive),12.9 µM (inactive),8.09 µM (inactive),16.3 µM (inactive),12.9 µM (inactive),10.5 µM (inactive),13.9 µM (inactive),14.8 µM (inactive),> 10 µM (inactive),5.48 µM (inactive),13.8 µM (inactive),12.5 µM (inactive),1.38 µM (inactive),> 10 µM (inactive),16.4 µM (inactive)
CCn1c2c(c3ccccc31)C(c1ccccc1)CC1C(=O)N(c3ccccc3)C(=O)C21 (stereo not given),,59 µM (inactive),> 100 µM (inactive),> 100 µM (inactive),31.7 µM (inactive),,> 100 µM (inactive),21.9 µM (inactive),41.6 µM (inactive),,> 100 µM (inactive),42.8 µM (inactive),24.7 µM (inactive),21 µM (inactive),31.8 µM (inactive),61 µM (inactive),91.2 µM (inactive),54.1 µM (inactive),17.6 µM (inactive)
CN1CCOC(C(NC(=O)c2ccccc2)c2ccccc2)C1=O (stereo not given),,> 100 µM (inactive),> 100 µM (inactive),> 100 µM (inactive),> 100 µM (inactive),,> 100 µM (inactive),> 100 µM (inactive),> 100 µM (inactive),,> 100 µM (inactive),> 100 µM (inactive),> 100 µM (inactive),> 100 µM (inactive),> 100 µM (inactive),> 100 µM (inactive),> 100 µM (inactive),> 100 µM (inactive),24.3 µM (inactive)
CN1C(c2ccccc2)CC(=NO)CC1c1ccccc1 (stereo not given),,97.5 µM (inactive),> 100 µM (inactive),40.2 µM (inactive),38.2 µM (inactive),,89.1 µM (inactive),40.9 µM (inactive),91.2 µM (inactive),,55.7 µM (inactive),> 100 µM (inactive),> 100 µM (inactive),97.9 µM (inactive),74 µM (inactive),53.5 µM (inactive),19.2 µM (inactive),60 µM (inactive),59.7 µM (inactive)
O=C(C[n+]1ccccc1)NNC(=O)/C(=C/c1ccc2c(c1)OCO2)NC(=O)c1ccccc1,,> 100 µM (inactive),> 100 µM (inactive),32.1 µM (inactive),32.4 µM (inactive),,> 79.1 µM (inactive),> 76.4 µM (inactive),> 100 µM (inactive),,49.1 µM (inactive),> 100 µM (inactive),> 100 µM (inactive),51.4 µM (inactive),36.7 µM (inactive),> 100 µM (inactive),30.4 µM (inactive),> 57.7 µM (inactive),36.7 µM (inactive)
CC(C)(C)C1=C(Br)C(F)(C(C)(C)C)OP1(=O)c1ccccc1 (stereo not given),16.1 µM (inactive),13.8 µM (inactive),18.8 µM (inactive),10.1 µM (inactive),11 µM (inactive),29.6 µM (inactive),19.5 µM (inactive),19.3 µM (inactive),19.2 µM (inactive),20 µM (inactive),19.6 µM (inactive),19.3 µM (inactive),18 µM (inactive),16.1 µM (inactive),15.1 µM (inactive),20.6 µM (inactive),,19.1 µM (inactive),17 µM (inactive)
COc1ccccc1/C=C(/C)[N+](=O)[O-],3.15 µM (inactive) and 1.93 µM (inactive),1.48 µM (inactive) and 3.94 µM (inactive),2.06 µM (inactive) and 4.06 µM (inactive),5.94 µM (inactive) and 3.86 µM (inactive),2.07 µM (inactive) and 1.85 µM (inactive),4.55 µM (inactive) and 4.24 µM (inactive),2.15 µM (inactive) and 2.2 µM (inactive),2.33 µM (inactive) and 2.98 µM (inactive),2.46 µM (inactive) and 2.19 µM (inactive),,,3.21 µM (inactive) and 4.49 µM (inactive),,1.37 µM (inactive) and 1.13 µM (inactive),2.02 µM (inactive) and 2.34 µM (inactive),1.99 µM (inactive) and 2.53 µM (inactive),269 nM (active) and 255 nM (active),,
Cc1nnc(N/N=C2\C(=O)Nc3ccccc32)n1N,,> 100 µM (inactive),> 100 µM (inactive),> 100 µM (inactive),> 100 µM (inactive),,> 100 µM (inactive),> 100 µM (inactive),> 100 µM (inactive),,> 100 µM (inactive),> 100 µM (inactive),> 100 µM (inactive),> 100 µM (inactive),> 100 µM (inactive),> 100 µM (inactive),> 100 µM (inactive),> 100 µM (inactive),> 100 µM (inactive)
CN(C(=O)C12C3C4C1C1C2C3C41C#N)C(C)(C)C (stereo not given),,> 100 µM (inactive),> 100 µM (inactive),> 100 µM (inactive),> 100 µM (inactive),,> 100 µM (inactive),> 100 µM (inactive),> 100 µM (inactive),,> 100 µM (inactive),> 100 µM (inactive),> 100 µM (inactive),> 100 µM (inactive),> 100 µM (inactive),> 100 µM (inactive),> 100 µM (inactive),> 100 µM (inactive),69.2 µM (inactive)
COc1ccc(/C=C2\CNC/C(=C\c3ccc(OC)cc3)C2=O)cc1,,35.3 µM (inactive),> 100 µM (inactive),76.9 µM (inactive),> 100 µM (inactive),,15.8 µM (inactive),59.4 µM (inactive),87.9 µM (inactive),,24.1 µM (inactive),> 100 µM (inactive),> 100 µM (inactive),46.3 µM (inactive),> 100 µM (inactive),> 100 µM (inactive),15.8 µM (inactive),47.9 µM (inactive),30.4 µM (inactive)
